According to article PMC6743335 (Journal of the American Chemical Society, 2018):

Biological target: T1, human ATR (adenosyltransferase) (Homo sapiens, UniProt Q96EY8)
T1 sequence (Q96EY8 33-250 limits assumed): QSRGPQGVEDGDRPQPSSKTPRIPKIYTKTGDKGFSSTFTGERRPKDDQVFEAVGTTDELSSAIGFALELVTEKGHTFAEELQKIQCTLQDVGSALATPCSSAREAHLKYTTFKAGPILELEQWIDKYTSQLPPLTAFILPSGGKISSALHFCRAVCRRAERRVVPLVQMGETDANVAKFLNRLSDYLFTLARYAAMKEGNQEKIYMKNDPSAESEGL
Test: binding, method in supplement
Conditions: ATP in the third site of the crystal with Mg

Nc1ncnc2c1ncn2[C@@H]1O[C@H](COP(=O)(O)OP(=O)(O)OP(=O)(O)O)[C@@H](O)[C@H]1O [ATP]
Kd: Electron density for AdoCbl was observed in two active sites
